# Like-named read-outs stand apart in the source and are kept apart here.
# Experiments:
# h15-LOX-1 = biological target: T1, h15-LOX-1 (Homo sapiens, UniProt P16050); assay: IC50 determination against h15-LOX-1; assay type: biochemical; conditions: 10 μM AA, 25 mM HEPES pH 7.5, 0.01% Triton X-100, 22 °C
# T1 construct: His tag; made in house
# T1 sequence (P16050 1-662): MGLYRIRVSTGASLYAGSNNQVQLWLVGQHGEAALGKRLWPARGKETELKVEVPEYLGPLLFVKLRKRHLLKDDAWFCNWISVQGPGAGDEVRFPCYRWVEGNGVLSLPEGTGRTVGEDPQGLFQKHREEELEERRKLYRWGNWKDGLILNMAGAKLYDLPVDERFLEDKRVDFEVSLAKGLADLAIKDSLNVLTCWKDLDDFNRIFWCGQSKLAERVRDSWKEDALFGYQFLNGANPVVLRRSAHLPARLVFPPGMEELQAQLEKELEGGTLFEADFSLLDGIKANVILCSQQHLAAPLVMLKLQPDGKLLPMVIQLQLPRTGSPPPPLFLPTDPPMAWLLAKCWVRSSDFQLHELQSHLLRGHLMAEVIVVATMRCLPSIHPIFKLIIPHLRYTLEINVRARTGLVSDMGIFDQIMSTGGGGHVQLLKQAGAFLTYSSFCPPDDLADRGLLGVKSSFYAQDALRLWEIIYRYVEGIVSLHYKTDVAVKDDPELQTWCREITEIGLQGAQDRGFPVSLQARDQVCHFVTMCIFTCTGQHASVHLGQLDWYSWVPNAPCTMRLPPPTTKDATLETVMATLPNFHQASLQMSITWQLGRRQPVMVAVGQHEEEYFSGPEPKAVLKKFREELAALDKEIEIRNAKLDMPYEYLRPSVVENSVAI
# Method: Overexpression and purification of his-tagged wild-type h12-LOX (Uniprot entry P18054), h15-LOX-1 (Uniprot entry P16050), and h15-LOX-2 (Uniprot entry O15296) were performed using nickel-affinity chromatography. The purity of h12-LOX, h15-LOX-1, and h15-LOX-2 was assessed using SDS gel as greater than 85%, and metal content was assessed with a Finnigan inductively coupled plasma mass spectrometer (ICP-MS, Thermo Fischer Scientific, San Jose, USA) via comparison with iron standard solution. Cobalt-EDTA was used as an internal standard. WT h5-LOX (UniProt entry P09917) was expressed in Rosetta 2 cells (Novagen) transformed with the pET14b-Stable-5-LOX plasmid (a gift from Marcia Newcomer of Louisiana State University) and grown in Terrific Broth containing 34 μg/mL chloramphenicol and 100 μg/mL ampicillin at 37 °C for 3.5 h, then placed at 20 °C for an additional 26 h. Cells were pelleted and resuspended in 50 mM Tris (pH 8.0), 500 mM NaCl, 20 mM imidazole with 1 μM pepstatin, 100 μM PMSF, and DNaseI (Sigma, Kanagawa, Japan). The cells were lysed in a French pressure cell and centrifuged at 40,000× g for 20 min at 4 °C. Saturated ammonium sulfate was added to achieve a final solution of 10% and inverted several times. The lysate was centrifuged at 40,000× g for 10 min at 4 °C. The pellet was discarded, and the supernatant was increased to a final concentration of 50% ammonium sulfate. The supernatant was rotated for 10 min at 4 °C then centrifuged at 40,000× g for 10 min at 4 °C. The pellet was split into 150 mg aliquots. The WT h5-LOX used for the kinetics in this work was not purified due to a dramatic loss in activity and was therefore prepared as an ammonium-sulfate precipitate.
# IC50 values for each acyl-CoA were measured against h5-LOX, h12-LOX, h15-LOX-1, and h15-LOX-2. The reactions were carried out in 25 mM HEPES buffer (pH 8.00), 0.01% Triton X-100, and 10 μM AA for h12-LOX; 25 mM HEPES buffer (pH 7.5), 0.01% Triton X-100, and 10 μM AA for h15-LOX-1 and h15-LOX-2; and 50 mM HEPES buffer (pH 7.5), 100 µM EDTA, 50 mM NaCl, 200 µM ATP, and 10 μM AA for h5-LOX. IC50 reactions were implemented with h15-LOX-1 (0.125 μM), h12-LOX (0.300 μM), h15-LOX-2 (0.5 μM), and h5-LOX (∼600 nM ammonium sulfate salt) at 22 °C in a 1 cm^2 quartz cuvette containing 2 mL of the according buffer and 10 μM AA for no longer than 2 min to avoid any cleavage of the acyl-coenzyme A. Inhibitor concentrations ranging from 50 μM to 0.01 μM were used. All reactions were conducted using a Cary-UV Vis spectrophotometer (Agilent, Santa Clara, CA, USA). The fastest rates over 15 s intervals were recorded. IC50 values were obtained by determining the percent of inhibition of the enzymatic rate at ten inhibitor concentrations and plotting the rate against the inhibitor concentration, followed by a hyperbolic saturation curve fit. The saturation curve fits were performed in duplicate or triplicate, depending on the quality of the data. […] Through HPLC monitoring, we were able to determine a lack of degradation of the fatty acyl-CoAs over the first hour.
# h12-LOX = biological target: T2, h12-LOX (Homo sapiens, UniProt P18054); set-up: method as in PMID 37506345; conditions: 10 μM AA, 25 mM HEPES pH 8.00, 0.01% Triton X-100, 22 °C, published previously, ref [30], cited from earlier work
# T2 construct: His tag; made in house
# T2 sequence (P18054 1-663): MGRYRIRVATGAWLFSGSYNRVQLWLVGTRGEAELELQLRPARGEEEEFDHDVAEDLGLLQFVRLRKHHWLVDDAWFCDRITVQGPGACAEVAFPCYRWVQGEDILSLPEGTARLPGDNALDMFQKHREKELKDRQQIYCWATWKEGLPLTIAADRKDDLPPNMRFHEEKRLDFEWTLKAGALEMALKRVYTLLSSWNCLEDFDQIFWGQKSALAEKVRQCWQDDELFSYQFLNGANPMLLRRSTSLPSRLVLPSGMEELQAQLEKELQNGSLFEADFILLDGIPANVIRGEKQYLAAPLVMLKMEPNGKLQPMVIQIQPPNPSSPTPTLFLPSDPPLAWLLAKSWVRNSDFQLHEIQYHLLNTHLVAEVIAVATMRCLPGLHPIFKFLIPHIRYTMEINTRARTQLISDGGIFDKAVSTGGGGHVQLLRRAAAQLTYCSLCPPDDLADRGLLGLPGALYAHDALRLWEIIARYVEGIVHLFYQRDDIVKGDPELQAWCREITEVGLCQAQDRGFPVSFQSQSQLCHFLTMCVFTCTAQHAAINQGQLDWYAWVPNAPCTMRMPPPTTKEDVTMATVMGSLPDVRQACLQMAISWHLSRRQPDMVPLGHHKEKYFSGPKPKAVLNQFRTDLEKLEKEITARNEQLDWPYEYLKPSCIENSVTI
IC50 (h15-LOX-1) [µM],SMILES,IC50 (h12-LOX) [µM],IC50 (h12-LOX; listed as docosahexaenoyl-CoA (22:6)) [µM],IC50 (h12-LOX; listed as palmitoleoyl-CoA (16:1)) [µM]
> 500,"CCCCC/C=C\C/C=C\C/C=C\C/C=C\CCCC(=O)SCCNC(=O)CCNC(=O)[C@H](O)C(C)(C)COP(=O)(O)OP(=O)(O)OC[C@H]1O[C@@H](n2cnc3c(N)ncnc32)[C@H](O)[C@@H]1OP(=O)(O)O [Arachidonoyl-CoA (20:4), arachidonoyl-coenzyme A (20:4)]",110 ± 20,,
> 500,"CC/C=C\C/C=C\C/C=C\C/C=C\C/C=C\C/C=C\CCC(=O)SCCNC(=O)CCNC(=O)C(O)C(C)(C)COP(=O)(O)OP(=O)(O)OC[C@H]1O[C@@H](n2cnc3c(N)ncnc32)[C@H](O)[C@@H]1OP(=O)(O)O (some centres unmarked) [Docosahexaenoyl CoA (22:6), docosahexaenoyl-coenzyme A (22:6)]",> 500,> 200,
,"CCCCC/C=C\C/C=C\CCCCCCCC(=O)SCCNC(=O)CCNC(=O)[C@H](O)C(C)(C)COP(=O)(O)OP(=O)(O)OC[C@H]1O[C@@H](n2cnc3c(N)ncnc32)[C@H](O)[C@@H]1OP(=O)(O)O [Linoleoyl-CoA (18:2), linoleoyl-CoA]",> 200,,
39 ± 2,"CCCCCCCC/C=C\CCCCCCCC(=O)SCCNC(=O)CCNC(=O)[C@H](O)C(C)(C)COP(=O)(O)OP(=O)(O)OC[C@H]1O[C@@H](n2cnc3c(N)ncnc32)[C@H](O)[C@@H]1OP(=O)(O)O [Oleoyl-CoA (18:1), oleoyl-coenzyme A (18:1)]",32 ± 4,,
> 500,"CCCCCC/C=C\CCCCCCCC(=O)SCCNC(=O)CCNC(=O)[C@H](O)C(C)(C)COP(=O)(O)OP(=O)(O)OC[C@H]1O[C@@H](n2cnc3c(N)ncnc32)[C@H](O)[C@@H]1OP(=O)(O)O [Palmitoleoyl-CoA (16:1), palmitoleoyl-coenzyme A (16:1)]",> 500,,> 200
> 500,"CCCCCCCCCCCCCCCC(=O)SCCNC(=O)CCNC(=O)[C@H](O)C(C)(C)COP(=O)(O)OP(=O)(O)OC[C@H]1O[C@@H](n2cnc3c(N)ncnc32)[C@H](O)[C@@H]1OP(=O)(O)O [Palmitoyl-CoA (16:0), palmitoyl-coenzyme A (16:0)]",> 200,,
4.2 ± 0.6,"CCCCCCCCCCCCCCCCCC(=O)SCCNC(=O)CCNC(=O)[C@H](O)C(C)(C)COP(=O)(O)OP(=O)(O)OC[C@H]1O[C@@H](n2cnc3c(N)ncnc32)[C@H](O)[C@@H]1OP(=O)(O)O [Stearoyl-CoA (18:0), stearoyl-coenzyme A (18:0)]",> 200,,
> 500,"CCCCC/C=C\C/C=C\C/C=C\CCCCC(=O)SCCNC(=O)CCNC(=O)[C@H](O)C(C)(C)COP(=O)(O)OP(=O)(O)OC[C@H]1O[C@@H](n2cnc3c(N)ncnc32)[C@H](O)[C@@H]1OP(=O)(O)O [ɣ-Linolenoyl-CoA (18:3), ɣ-linolenoyl-coenzyme A (18:3)]",> 200,,

# — article PMC10341549, “Inhibitory Investigations of Acyl-CoA Derivatives against Human Lipoxygenase Isozymes” (International Journal of Molecular Sciences, 2023)
